Results on three molecules are retold here after article PMC5148754, “Response surface methodology-based optimization of production media and purification of α-galactosidase in solid-state fermentation by Fusarium moniliforme NCIM 1099” (3 Biotech, 2016).

The test system of assay [1] is T1, α-galactosidase.
T1 construct: gene EC 3.2.1.22; single band 57 kDa on SDS-PAGE; optimum pH 4.0
The assay can be described thus: initial rate of hydrolysis, Lineweaver-Burk. It is filed as biochemical, Fusarium verticillioides. Conditions: citrate phosphate buffer pH 5.0, 50 °C (standard assay); read-out: apparent Km.

Assay [2] relates to T1, α-galactosidase. The assay can be described thus: initial rate of hydrolysis, p-nitrophenol release at […] nm, Lineweaver-Burk. It is filed as biochemical, Fusarium verticillioides. The following applies: citrate phosphate buffer pH 5.0, 50 °C (standard assay); read-out: apparent Km.

On to `OC[C@H]1O[C@H](OC[C@H]2O[C@H](O[C@]3(CO)O[C@H](CO)[C@@H](O)[C@@H]3O)[C@H](O)[C@@H](O)[C@@H]2O)[C@H](O)[C@@H](O)[C@H]1O` [raffinose], for which the Km (as a rule, the substrate concentration at which the rate is half of its maximum) in the assay on α-galactosidase [1] was found to be 3660 µM.
The same measure, in the same setting: for `OC[C@H]1O[C@H](OC[C@H]2OC(O)[C@H](O)[C@@H](O)[C@@H]2O)[C@H](O)[C@@H](O)[C@H]1O` (stereo partly drawn) [melibiose] the value was 1360 µM.
On to `O=[N+]([O-])c1ccc(O[C@H]2O[C@H](CO)[C@H](O)[C@H](O)[C@H]2O)cc1` [p-nitrophenyl-α-D-galactopyranoside], for which the Km in the assay on α-galactosidase [2] amounted to 200 µM.
